The record followed here is publication PMC4411097, “Pachymic Acid Inhibits Growth and Induces Apoptosis of Pancreatic Cancer In Vitro and In Vivo by Targeting ER Stress” (PLoS ONE, 2015).

The series in a line: Toxicology studies in vivo. Details: species or system female nude mice. As to conditions: for ALP: mean ± SD (n = 10–13), control 60 ± 19; for Albumin: control 1.5 ± 0.2; for AST: control 625 ± 367. On the procedure:
Toxicity of PA was evaluated in the 6 weeks old female nude mice (Harlan, Indianapolis, IN). The mice were acclimatized for 1 week and treated with PA (0, 25 or 50 mg kg^-1 of body weight, n = 15 per group) by i.p. 3 times per week for additional 5 weeks. The body weight was evaluated 3 times per week. At the end of the experiment, animals were euthanized by CO2 inhalation. Blood was collected and a gross pathology examination performed. Liver, spleen, kidney, lung and heart were harvested, fixed in 10% neutral-buffered formalin at 4°C for 24 h followed tissue processing overnight and then embedded in paraffin. Five-micrometer sections were stained with H&E. The levels of alkaline phosphatase (ALP), alanine aminotransferase (ALT), aspartate aminotransferase (AST), albumin and total protein were determined at the IU Health Pathology Laboratory (Indianapolis, IN).

For the molecule `C=C(CC[C@@H](C(=O)O)[C@H]1[C@H](O)C[C@@]2(C)C3=C(CC[C@]12C)[C@@]1(C)CC[C@H](OC(C)=O)C(C)(C)[C@@H]1CC3)C(C)C` [PA, Pachymic acid], under “25 mg kg^-1”, the “Liver enzyme profiles (ALP, ALT, AST, albumin, total protein)” value is on record as “not markedly altered” and the “Organ pathology by H&E (liver, kidney, spleen, lung, heart)” value is “did not demonstrate any abnormalities”. The molecule further registered an ALP (25 mg kg^-1, serum) of 62 ± 9 IU L^-1. For the setting “25 mg kg^-1, serum, mean ± SD”, this molecule registered an Albumin of 1.6 ± 0.1 g/dL and an AST of 531 ± 296 IU L^-1. This molecule registered a T Protein (25 mg kg^-1, serum, mean ± SD, control 4.1 ± 0.5) of 4.5 ± 0.2 g/dL. The ALT (25 mg kg^-1, serum, mean ± SD, control 123 ± 88) is listed as 194 ± 193 IU L^-1. Moreover, under “50 mg kg^-1”, the Clinical signs result is “several signs of discomfort and impaired movement”; the “Organ pathology by H&E (liver, kidney, spleen, lung, heart)” value was “obvious pathological changes in liver, kidney and spleen tissues”. The ALP (50 mg kg^-1, serum) stood at 59 ± 11 IU L^-1. For the setting “50 mg kg^-1, serum, mean ± SD”, this molecule yielded an Albumin of 1.6 ± 0.1 g/dL and an AST of 1431 ± 997 IU L^-1. Moreover, the “Body weight, treatment groups vs control” value (25 and 50 mg kg^-1 i.p. 3 times per week, 5 weeks) is “no significant differences”.
